Counter-ions that a name gives are not always drawn.
Columns and labels:
[1] = target: T1, His-tagged human Aurora A (Homo sapiens, UniProt O14965); experiment: Aurora A inhibitory activity (IMAP fluorescence polarization); assay type: biochemical; settings: 20 μM ATP, 30° C., 120 minutes
T1 construct: His (N); made in house; host or cells: Escherichia coli BL21-CodonPlus(DE3)-RIL
T1 sequence (O14965 1-403): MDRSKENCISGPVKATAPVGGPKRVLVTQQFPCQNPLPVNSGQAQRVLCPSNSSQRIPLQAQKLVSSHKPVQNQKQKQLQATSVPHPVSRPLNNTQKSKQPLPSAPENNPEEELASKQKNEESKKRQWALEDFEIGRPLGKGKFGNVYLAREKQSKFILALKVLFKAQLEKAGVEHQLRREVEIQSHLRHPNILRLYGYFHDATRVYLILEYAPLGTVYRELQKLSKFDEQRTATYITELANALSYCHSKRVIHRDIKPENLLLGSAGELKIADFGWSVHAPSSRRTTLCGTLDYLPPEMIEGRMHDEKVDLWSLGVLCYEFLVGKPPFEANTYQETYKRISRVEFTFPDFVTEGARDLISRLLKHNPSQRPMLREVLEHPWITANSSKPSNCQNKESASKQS
From the text: cDNA of N-terminal His-tagged human Aurora A was integrated into an expression vector, which was then highly expressed in Escherichia coli BL21-CodonPlus(DE3)-RIL cells. The Escherichia coli was harvested and lysed, and then the His-tagged human Aurora A protein was applied onto a nickel chelate column and eluted from the column with imidazole. The active fractions were desalted with a desalting column to give a purified enzyme.
For measurement of the activity of Aurora A, the substrate used was a synthetic peptide (5-FAM (5-carboxyfluorescein)-γ-aminobutyric acid-Ala-Leu-Arg-Arg-Ala-Ser-Leu-Gly-NH2) (SEQ.ID.NO.: 1), which was purchased from Toray Research Center, Inc.
For the phosphorylation reaction, the method by Upstate, Inc. [Kinase Profiler™ Assay Protocols] was referred to, and phosphorylation of the substrate was detected using IMAP® technology (Molecular Devices, Co. Ltd.) (Gaudet E W. et. al, J. Biomol. Screen, 8, 164-175 (2003)). Concretely, the phosphorylation reaction and the detection were carried out as follows:
The phosphorylation reaction was conducted using 384 well plate, and the reaction volume was 10 μl/well. The reaction buffer is comprised of 50 mM Tris-chloride buffer (pH 7.4), 15 mM magnesium acetate, and 0.2 mM ethylenediamine-N,N,N′,N′-tetraacetic acid (EDTA). Thereto, the purified Aurora A protein, 100 nM of the peptide substrate, and 20 μM of adenosine 5′-triphosphate (ATP) were added, and then the reaction was carried out at 30° C. for 120 minutes.
Thereafter, in order to terminate and detect the reaction, 30 μl of the IMAP (registered trademark) binding reagent (IMAP Progressive Binding Reagent, R7284) that had been diluted (1:400) in the 1×IMAP binding buffer A (IMAP Progressive Binding Buffer A, 5× stock, R7282) was added to each well. The solution stood still for 60 minutes in the dark, and then fluorescence polarization was measured using a high-end microplate reader (excitation wavelength: 485 nm; emission wavelength: 520 nm).
(§1) The compound to be tested was added to the reaction system such that a dilution series of the compound in dimethylsulfoxide (DMSO) was prepared, and then 0.5 μL of this solution was added for the testing to each well. Each control well was provided by adding 0.5 μL of DMSO to the well in place of the DMSO solution containing the compound to be tested.

[2] = target: T2, GST-tagged human Aurora B(AurB)/His-tagged human INCENP complex proteins (Homo sapiens, UniProt Q96GD4); experiment: Aurora B inhibitory activity (Method A, IMAP kit); assay type: biochemical; settings: 40 μM ATP, 25° C., 45 minutes
T2 construct: GST; purchased Carna Biosciences, Inc
Method: An assay development kit for IMAP (registered trademark) (Aurora B), purchased from Carna Biosciences, Inc., was used for phosphorylation reaction, and the phosphorylation of a substrate was detected using the IMAP technology. The assay development kit used is comprised of an assay buffer, GST-tagged human Aurora B(AurB)/His-tagged human INCENP complex proteins (amino acid sequence: 803-916, AAU04398.1), and an ATP/substrate solution. Using the same, the phosphorylation reaction was conducted in accordance with a partially revised protocol attached to the kit, and then the phosphorylation of the substrate was detected using the IMAP technology.
For the phosphorylation reaction, 384 well plate was used, and the reaction volume was 10 μl/well. The composition of the reaction buffer (assay buffer) is comprised of 20 mM of HEPES buffer (pH 7.4), 0.01% Tween-20, and 2 mM of dithiothreitol (DTT). Thereto, AurB/INCENP complex protein, 100 nM of the substrate, and 40 μM of ATP, and 1 mM of magnesium salt were added, and then the reaction was conducted at 25° C. for 45 minutes. Thereafter, in order to terminate and detect the reaction, 30 μl of the IMAP (registered trademark) binding reagent (IMAP Progressive Binding Reagent, R7284) that had been diluted (1:400) in the 1×IMAP binding buffer A (IMAP Progressive Binding Buffer A, 5× stock, R7282) was added to each well. The solution stood still for 60 minutes in the dark, and then fluorescence polarization was measured using a high-end microplate reader (excitation wavelength: 485 nm; emission wavelength: 520 nm).
as §1, with “DMSO” for “dimethylsulfoxide (DMSO)”

[3] = system: Human cervical cancer cells (HeLa S3); experiment: Effect by combined use of drugs in cells (with docetaxel), WST-8 method; assay type: cell-based; settings: docetaxel 0.3 nM alone, HeLa S3, three days, DMSO = 0%
Method: Fetal calf serum (FCS) was purchased from Moregate Biotech, DMEM medium from Invitrogen Corp., docetaxel (tradename: Taxere) from Sigma-Aldrich, Inc., and WST-8 from Kishida Chemical Co., Ltd.
Human cervical cancer cells (HeLa S3) were obtained from the American Type Culture Collection (ATCC).
Cells were suspended in a DMEM medium containing 10% FCS, and the cell suspension was dispensed to two 96-well plastic plates at a rate of 750 cells/100 microliters per well. The plates were incubated overnight in 5% CO2-95% air at 37° C. A drug was subjected to graded dilution in dimethylsulfoxide and further diluted with DMSO or with a DMEM medium containing 10% FCS and also containing 0.6 nM docetaxel. Then, the dilutions were each dispensed to one of the plates on which cells had been disseminated, at a rate of 100 microliters per well. The final concentration of docetaxel at this stage was 0.3 nM. Also, the concentrations in the case of sole administration of the compound according to the invention were 0.003, 0.01, 0.03, 0.1, 0.3, 1, 3 and 10 μM. The plates were incubated for further three days in 5% CO2-95% air at 37° C. Cell growth after incubation was measured by the WST-8 method (H. Tominaga, et al., Anal. Commun., 36, 47-50 (1999)). Here, the WST-8 method refers to a method in which 20 microliters of a WST-8 reagent solution is added to each well, incubation is conducted at 37° C. for 60 minutes, the plate is stirred, and the amount of formazan produced is measured by a colorimetric method to determine the inhibitory rate of the drug. The growth inhibitory effects of docetaxel and of the compound according to the invention were determined, with the value obtained in sole treatment of DMSO being defined as 0%.

T2 sequence (Q96GD4 whole entry): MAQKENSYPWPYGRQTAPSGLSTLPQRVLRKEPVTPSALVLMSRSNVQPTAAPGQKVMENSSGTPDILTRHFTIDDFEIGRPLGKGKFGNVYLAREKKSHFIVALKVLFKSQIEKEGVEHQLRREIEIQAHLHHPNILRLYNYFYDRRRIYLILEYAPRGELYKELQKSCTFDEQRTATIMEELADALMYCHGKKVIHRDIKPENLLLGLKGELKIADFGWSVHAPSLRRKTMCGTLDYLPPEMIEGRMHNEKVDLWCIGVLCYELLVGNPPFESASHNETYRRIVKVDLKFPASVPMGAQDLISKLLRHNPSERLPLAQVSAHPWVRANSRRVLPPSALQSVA
T2 sequence (Q9NQS7 803-916 partner limits assumed): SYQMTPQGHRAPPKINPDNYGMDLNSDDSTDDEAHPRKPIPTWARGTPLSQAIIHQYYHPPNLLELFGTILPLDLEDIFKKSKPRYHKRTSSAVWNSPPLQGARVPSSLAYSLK

Row | IC50 [1] [nM] | IC50 [2] [nM] | Structure (SMILES) | inhibition at 0.0003 µM ([3]; Homo sapiens, HeLa S3, 72 h, read-out: Cell growth inhibitory effect by sole administration of docetaxel (0.3 nM) (%)) [%] | Cell growth inhibitory effect by sole administration of docetaxel (0.3 nM) (%) [3] [%]
1 | 1.6 | 400 | Cc1cc(Nc2cc[nH]n2)nc(CC2CCN(C(=O)c3cccc(Cl)c3F)CC2)n1 [Example 3, 2-((1-(3-chloro-2-fluorobenzoyl)piperidin-4-yl)methyl)-6-methyl-N-1H-pyrazol-3-ylpyrimidin-4-amine trifluoroacetate] |  | 
2 | 1.14 | > 1000 | CCOC(=O)C1(Cc2cccc(Nc3cc[nH]n3)n2)CCN(C(=O)c2cccc(Cl)c2F)CC1 [Example 4, ethyl 1-(3-chloro-2-fluorobenzoyl)-4-((6-(1H-pyrazol-3-ylamino)pyridin-2-yl)methyl)piperidine-4-carboxylate] |  | 
3 | 0.63 | 555 | CCOC(=O)C1(Cc2cccc(Nc3cc[nH]n3)n2)CCN(C(=O)c2cccc(C(F)(F)F)c2F)CC1 [Example 5, ethyl 1-(2-fluoro-3-(trifluoromethyl)benzoyl)-4-((6-(1H-pyrazol-3-ylamino)pyridin-2-yl)methyl)piperidine-4-carboxylate] |  | 
4 | 1.57 | > 1000 | NC(=O)C1(Cc2cccc(Nc3cc[nH]n3)n2)CCN(C(=O)c2cccc(Cl)c2F)CC1 [Example 6, 1-(3-chloro-2-fluorobenzoyl)-4-((6-(1H-pyrazol-3-ylamino)pyridin-2-yl)methyl)piperidine-4-carboxamide] |  | 
5 | 0.61 | 135 | NC(=O)C1(Cc2cccc(Nc3cc[nH]n3)n2)CCN(C(=O)c2cccc(C(F)(F)F)c2F)CC1 [Example 7, 1-(2-fluoro-3-(trifluoromethyl)benzoyl)-4-((6-(1H-pyrazol-3-ylamino)pyridin-2-yl)methyl)piperidine-4-carboxamide] |  | 
6 | 0.79 | 555 | CONC(=O)C1(Cc2cccc(Nc3cc[nH]n3)n2)CCN(C(=O)c2cccc(C(F)(F)F)c2F)CC1 [Example 8, 1-(2-fluoro-3-(trifluoromethyl)benzoyl)-N-methoxy-4-((6-(1H-pyrazol-3-ylamino)pyridin-2-yl)methyl)piperidine-4-carboxamide] |  | 
7 | 0.26 | 236 | O=C(c1cccc(F)c1F)N1CCC(Cc2cccc(Nc3cc[nH]n3)n2)(c2n[nH]c(=O)o2)CC1 [Example 11, 5-(1-(2,3-difluorobenzoyl)-4-((6-(1H-pyrazol-3-ylamino)pyridin-2-yl)methyl)piperidin-4-yl)-1,3,4-oxadiazol-2(3H)-one trifluoroacetate] |  | 
8 | 2.55 | 609 | O=c1[nH]nc(C2(Cc3cccc(Nc4cc[nH]n4)n3)CCN(S(=O)(=O)c3cccc(Cl)c3Cl)CC2)o1 [Example 13, 5-(1((2,3-dichlorophenyl)sulfonyl)-4((6-(1H-pyrazol-3-ylamino)pyridin-2-yl)methyl)piperidin-4-yl)-1,3,4-oxadiazol-2(3H)-one trifluoroacetate] |  | 
9 | 0.25 | 77.5 | Cc1cc(Nc2cccc(CC3(c4n[nH]c(=O)o4)CCN(C(=O)c4cccc(Cl)c4F)CC3)n2)n[nH]1 [Example 15, 5-(1-(3-chloro-2-fluorobenzoyl)-4-((6-((5-methyl-1H-pyrazol-3-yl)amino)pyridin-2-yl)methyl)piperidin-4-yl)-1,3,4-oxadiazol-2(3H)-one] |  | 
10 | 0.41 | 157 | Cc1cc(Nc2cccc(CC3(c4n[nH]c(=O)o4)CCN(C(=O)c4cccc(F)c4F)CC3)n2)n[nH]1 [Example 16, 5-(1-(2,3-difluorobenzoyl)-4-((6-((5-methyl-1H-pyrazol-3-yl)amino)pyridin-2-yl)methyl)piperidin-4-yl)-1,3,4-oxadiazol-2(3H)-one] |  | 
11 | 1.23 | > 1000 | Cc1cc(Nc2cc[nH]n2)nc(CC2(C(N)=O)CCN(C(=O)c3cccc(Cl)c3F)CC2)n1 [Example 18, 1-(3-chloro-2-fluorobenzoyl)-4-((4-methyl-6-(1H-pyrazol-3-ylamino)pyrimidin-2-yl)methyl)piperidine-4-carboxamide trifluoroacetate] |  | 
12 |  |  | CC(=O)O[C@@]12CO[C@@H]1C[C@H](O)[C@@]1(C)C(=O)[C@H](O)C3=C(C)[C@@H](OC(=O)[C@H](O)[C@@H](NC(=O)OC(C)(C)C)c4ccccc4)C[C@@](O)([C@@H](OC(=O)c4ccccc4)[C@H]21)C3(C)C [docetaxel, reference compound] | 49.6 | 51.6

Source: patent publication US8519136B2, “Aminopyridine derivatives having aurora a selective inhibitory action” (MSD K.K., priority 2008, dated 2013)
